IC50 and inhibition data for 41 compounds are collected here from ChEMBL document CHEMBL5360557 (Eur J Med Chem, 2023).

Experiment [1] addresses T1, Cholinesterase (Homo sapiens, UniProt P06276). Put plainly: Inhibition of recombinant human BuChE using butyrylthiocholine iodide as substrate preincubated with enzyme for 5 mins followed by substrate addition and measured after 1 min by Ellman's method.
The target of experiment [2] is Acetylcholinesterase (Homo sapiens, UniProt P22303). Put plainly: Inhibition of recombinant human AChE using acetylthiocholine iodide as substrate preincubated with enzyme for 5 mins followed by substrate addition and measured after 1 min by Ellman's method.
For experiment [3], the target named is T1, Cholinesterase. The experiment in a line: Inhibition of recombinant human BuChE using butyrylthiocholine iodide as substrate at 10 uM preincubated with enzyme for 5 mins followed by substrate addition and measured after 1 min by Ellman's method relative to control. Particulars: time 6.0 min.

Some results are limits rather than exact numbers.

T1 sequence (P06276 whole entry): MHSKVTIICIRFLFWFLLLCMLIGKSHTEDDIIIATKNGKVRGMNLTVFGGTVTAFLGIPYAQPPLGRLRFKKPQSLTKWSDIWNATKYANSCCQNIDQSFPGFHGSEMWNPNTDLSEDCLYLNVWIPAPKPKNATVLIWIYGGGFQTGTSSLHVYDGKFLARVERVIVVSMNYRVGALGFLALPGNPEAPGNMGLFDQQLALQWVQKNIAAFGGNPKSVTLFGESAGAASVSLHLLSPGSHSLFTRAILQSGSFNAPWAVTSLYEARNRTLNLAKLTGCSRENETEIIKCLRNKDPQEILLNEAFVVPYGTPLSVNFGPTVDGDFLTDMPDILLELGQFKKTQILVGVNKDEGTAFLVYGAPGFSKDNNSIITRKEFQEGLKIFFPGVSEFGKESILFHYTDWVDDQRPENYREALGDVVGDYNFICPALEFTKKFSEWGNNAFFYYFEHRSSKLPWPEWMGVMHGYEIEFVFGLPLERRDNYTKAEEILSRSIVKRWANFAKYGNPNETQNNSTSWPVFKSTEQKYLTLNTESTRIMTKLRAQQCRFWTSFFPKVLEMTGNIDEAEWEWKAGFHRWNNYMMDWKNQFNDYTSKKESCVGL
Acetylcholinesterase, sequence (P22303 whole entry): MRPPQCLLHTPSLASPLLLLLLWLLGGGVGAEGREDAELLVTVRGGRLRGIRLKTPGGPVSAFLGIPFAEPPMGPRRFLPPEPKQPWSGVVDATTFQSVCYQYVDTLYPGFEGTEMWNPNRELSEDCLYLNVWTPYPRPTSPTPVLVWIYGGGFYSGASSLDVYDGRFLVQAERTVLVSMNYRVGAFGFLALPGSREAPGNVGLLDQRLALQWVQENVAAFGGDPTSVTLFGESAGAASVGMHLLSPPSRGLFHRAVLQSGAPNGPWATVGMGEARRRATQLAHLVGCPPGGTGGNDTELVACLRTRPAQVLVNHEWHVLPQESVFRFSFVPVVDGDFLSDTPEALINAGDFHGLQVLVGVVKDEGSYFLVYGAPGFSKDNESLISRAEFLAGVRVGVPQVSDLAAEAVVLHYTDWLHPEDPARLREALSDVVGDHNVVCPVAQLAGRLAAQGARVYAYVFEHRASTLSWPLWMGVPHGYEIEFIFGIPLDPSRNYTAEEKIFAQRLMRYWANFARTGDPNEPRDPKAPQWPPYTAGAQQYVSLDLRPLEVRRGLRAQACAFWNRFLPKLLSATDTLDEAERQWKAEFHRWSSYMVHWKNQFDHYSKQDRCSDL

On to `C=CCOc1ccc(CCN(CC=C)Cc2cccc(OC)c2OCc2ccccc2)cc1`, for which the IC50 in experiment [1] was 1.3 µM; in experiment [2], more than 10 µM. For the same compound, the inhibition in experiment [3] came to 71%.
Consider `COc1cccc(CCNCc2cccc(OC)c2OCc2ccccc2)c1`, for which the IC50 in experiment [1] is 2.5 µM; in experiment [2], more than 10 µM. Moreover, the inhibition in experiment [3] is 77%.
For `C#CCN(CCc1ccc(OC)cc1)Cc1cccc(OC)c1OCc1ccccc1`, the results for the IC50 in experiment [1] and in experiment [2] were 1.3 µM and more than 10 µM, respectively. The inhibition in experiment [3] was 66%.
Turning to `C#CCN(CCc1ccc(O)cc1)Cc1cccc(OC)c1OCc1ccccc1`, the IC50 in experiment [1] is 1.9 µM; in experiment [2] it was more than 10 µM. The inhibition in experiment [3] was 78%.
The matching figures for `CCN(CCc1ccccc1)Cc1cccc(OC)c1OCc1ccccc1`: 0.6 µM, more than 10 µM and 91%.
Turning to `C=CCN(CCc1ccccc1)Cc1cccc(OC)c1OCc1ccccc1`, the figures for the concentration for half-maximal inhibition (IC50) in experiment [1] and in experiment [2] were 0.4 µM and more than 10 µM, respectively. Moreover, the inhibition in experiment [3] is 88%.
As to `COc1cccc(CNCc2ccccc2)c1OCc1ccccc1`, the IC50 in experiment [1] was 1.5 µM; in experiment [2] it was more than 10 µM. Moreover, the inhibition in experiment [3] was 78%.
For `CCCCCCCCCCCCCCN(CCCCc1ccccc1)Cc1cccc(OC)c1OCc1ccccc1`, the IC50 in experiment [1] and in experiment [2] was more than 10 µM each time. Also, the inhibition in experiment [3] came out at 25%.
`C#CCN(CCc1cccc(OC)c1)Cc1cccc(OC)c1OCc1ccccc1`: the half-inhibitory concentration (IC50) in experiment [1] and in experiment [2] was more than 10 µM each time. Further, the inhibition in experiment [3] was 28%.
Turning to `CCCCCCN(CCCCc1ccccc1)Cc1cccc(OC)c1OCc1ccccc1`, the IC50 in experiment [1] was 0.7 µM; in experiment [2], more than 10 µM. Also, the inhibition in experiment [3] amounted to 78%.
For `COc1cccc(CNCCCCc2ccccc2)c1OCc1ccccc1`, the half-maximal inhibitory concentration (IC50) is 0.2 µM in experiment [1] and more than 10 µM in experiment [2]. In experiment [3], the inhibition was found to be 94%.
The corresponding values for `CCCN(CCc1ccccc1)Cc1cccc(OC)c1OCc1ccccc1` are 0.5 µM, more than 10 µM and 91%.
With `CCCN(CCCc1ccccc1O)Cc1cccc(OC)c1OCc1ccccc1`, the IC50 in experiment [1] was 0.22 µM; in experiment [2], more than 10 µM. Also, in experiment [3], the inhibition amounted to 95%.
Consider `CCN(CCc1ccccc1OC)Cc1cccc(OC)c1OCc1ccccc1`, for which the IC50 was 0.7 µM in experiment [1] and more than 10 µM in experiment [2]. In addition, the inhibition in experiment [3] stood at 94%.
Take `COc1cccc(CNCCc2ccccc2)c1OCc1ccccc1`: the results for the IC50 in experiment [1] and in experiment [2] were 0.4 µM and more than 10 µM, respectively. For the same compound, in experiment [3], the inhibition came to 93%.
Turning to `CCN(CCc1ccc(OC)cc1)Cc1cccc(OC)c1OCc1ccccc1`, the values for the IC50 in experiment [1] and in experiment [2] were 2.5 µM and more than 10 µM, respectively. Moreover, the inhibition in experiment [3] was 77%.
In the case of `C=CCN(CCc1ccccc1OC)Cc1cccc(OC)c1OCc1ccccc1`, the half-maximal inhibitory concentration (IC50) is 0.3 µM in experiment [1] and more than 10 µM in experiment [2]. In experiment [3], the inhibition came to 90%.
For the compound `C#CCN(CCCc1ccccc1)Cc1cccc(OC)c1OCc1ccccc1`, the half-inhibitory concentration (IC50) in experiment [1] is 0.23 µM; in experiment [2] it was more than 10 µM. In experiment [3], the inhibition was 76%.
As for `COc1ccc(CCN(C)Cc2cccc(OC)c2OCc2ccccc2)cc1`, the IC50 is 3.2 µM in experiment [1] and more than 10 µM in experiment [2]. Also, the inhibition in experiment [3] was determined as 76%.
The matching figures for `C=CCN(CCc1ccc(OC)cc1)Cc1cccc(OC)c1OCc1ccccc1`: 2 µM, more than 10 µM and 72%.
As to `CCCN(CCc1ccc(OC)cc1)Cc1cccc(OC)c1OCc1ccccc1`, the IC50 in experiment [1] was 1.4 µM; in experiment [2], more than 10 µM. Also, in experiment [3], the inhibition amounted to 82%.
`COc1cccc(CN(C)CCCc2ccccc2)c1OCc1ccccc1`: the figures for the IC50 in experiment [1] and in experiment [2] were 0.1 µM and more than 10 µM, respectively. Further, the inhibition in experiment [3] came out at 97%.
Regarding `CCCN(CCc1cccc(OC)c1)Cc1cccc(OC)c1OCc1ccccc1`, the 50% inhibitory concentration (IC50) was 0.9 µM in experiment [1] and more than 10 µM in experiment [2]. The inhibition in experiment [3] came out at 89%.
The corresponding values for `CCCN(CCc1ccccc1OC)Cc1cccc(OC)c1OCc1ccccc1` are 0.7 µM, more than 10 µM and 92%.
The corresponding values for `C#CCOc1ccc(CCN(CC=C)Cc2cccc(OC)c2OCc2ccccc2)cc1` are 2.2 µM, more than 10 µM and 64%.
Consider `COc1cccc(/C=N/CCc2ccc(O)cc2)c1OCc1ccccc1`, for which the IC50 was 8 µM in experiment [1] and more than 10 µM in experiment [2]. Also, the inhibition in experiment [3] was found to be 48%.
For the compound `CCN(CCc1ccc(O)cc1)Cc1cccc(OC)c1OCc1ccccc1`, the IC50 was 0.3 µM in experiment [1] and more than 10 µM in experiment [2]. The inhibition in experiment [3] stood at 94%.
Turning to `COc1cccc(CNC(C)CCc2ccccc2)c1OCc1ccccc1` (stereo not drawn), the IC50 is 0.13 µM in experiment [1] and more than 10 µM in experiment [2]. In addition, the inhibition in experiment [3] was found to be 97%.
For the compound `C#CCN(CCc1ccccc1)Cc1cccc(OC)c1OCc1ccccc1`, the IC50 in experiment [1] and in experiment [2] was more than 10 µM throughout. Moreover, in experiment [3], the inhibition turned out to be 46%.
Regarding `C#CCN(CCc1ccc(OCC=C)cc1)Cc1cccc(OC)c1OCc1ccccc1`, the half-inhibitory concentration (IC50) in experiment [1] and in experiment [2] was more than 10 µM in each case. Moreover, the inhibition in experiment [3] turned out to be 42%.
Regarding `CCCN(CCCc1cccc(O)c1)Cc1cccc(OC)c1OCc1ccccc1`, the IC50 in experiment [1] was 0.16 µM; in experiment [2], more than 10 µM. Further, the inhibition in experiment [3] came out at 96%.
On to `COc1ccc(CCNCc2cccc(OC)c2OCc2ccccc2)cc1`, for which the IC50 in experiment [1] is 0.4 µM; in experiment [2], more than 10 µM. For the same compound, the inhibition in experiment [3] stood at 94%.
The matching figures for `CCN(CCc1cccc(OC)c1)Cc1cccc(OC)c1OCc1ccccc1`: 0.9 µM, more than 10 µM and 88%.
Consider `COc1cccc(CNCC(C)c2ccccc2)c1OCc1ccccc1` (stereo not drawn), for which the figures for the IC50 in experiment [1] and in experiment [2] were 0.16 µM and more than 10 µM, respectively. Besides, the inhibition in experiment [3] worked out at 96%.
The corresponding values for `C=CCN(CCc1cccc(OC)c1)Cc1cccc(OC)c1OCc1ccccc1` are 1.5 µM, more than 10 µM and 76%.
Regarding `C=CCN(CCc1ccc(O)cc1)Cc1cccc(OC)c1OCc1ccccc1`, the results for the IC50 in experiment [1] and in experiment [2] were 0.3 µM and more than 10 µM, respectively. For the same compound, the inhibition in experiment [3] was found to be 96%.
The corresponding values for `CCOc1ccc(CCN(CC)Cc2cccc(OC)c2OCc2ccccc2)cc1` are 0.9 µM, more than 10 µM and 84%.
Take `COc1ccccc1CCN(C)Cc1cccc(OC)c1OCc1ccccc1`: the IC50 in experiment [1] is 0.8 µM; in experiment [2] it was more than 10 µM. Also, in experiment [3], the inhibition stood at 85%.
Take `COc1ccccc1CCNCc1cccc(OC)c1OCc1ccccc1`: the half-inhibitory concentration (IC50) is 0.8 µM in experiment [1] and more than 10 µM in experiment [2]. In addition, the inhibition in experiment [3] stood at 88%.
The corresponding values for `C#CCN(CCc1ccccc1OC)Cc1cccc(OC)c1OCc1ccccc1` are more than 10 µM, more than 10 µM and 35%.
The corresponding values for `COc1cccc(CN(CCCCc2ccccc2)CCCC(C)C)c1OCc1ccccc1` are 0.29 µM, more than 10 µM and 87%.
